The record followed here is ChEMBL document CHEMBL1201862, “PubChem BioAssay data set” (2004).

Structures are written as SMILES.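 Following 48 hours of exposure in 96-well plates, responses at five concentrations were used to interpolate endpoints linearly. GI50: concentration for 50% inhibition of growth.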 Calls of active or inactive are those of the source. Cut-off read from the data, not from the text of the source: active = GI50 up to about 1.1 µM and inactive = higher.

Test systems include K562; HT-29; NCI-H460; SK-MEL-28; RXF 393; UO-31; SNB-75; A549; MCF7; SN12C; EKVX; COLO 205; NCI-H23; OVCAR-5; NCI-H522; CAKI-1; HL-60; MDA-N; M14; MDA-MB-231.
Common to all, as to assay: NCI-60 cell line screen, 48 h

For the compound `CC1=C(O)C(=O)[C@@H]2O[C@@H]2C1=O`, the GI50 is 5.64 µM (inactive) in the test with K562; 12.1 µM (inactive) in the test on HT-29; 19 µM (inactive) in the test on NCI-H460; 5.98 µM (inactive) with SK-MEL-28; 2.84 µM (inactive) with RXF 393; 22.3 µM (inactive) in the test with UO-31. Also, the GI50 was 17.4 µM (inactive) in the test on SNB-75; 27.3 µM (inactive) in the test on A549; 10 µM (inactive) with MCF7; 19.3 µM (inactive) with SN12C; 14.7 µM (inactive) in the test with EKVX; 4.72 µM (inactive) in the test with COLO 205. In addition, the GI50 is 12.7 µM (inactive) in the test with NCI-H23; 16.3 µM (inactive) in the test on OVCAR-5; 2 µM (inactive) with NCI-H522; 5.69 µM (inactive) in the test on CAKI-1; 2.2 µM (inactive) in the test with HL-60.
Turning to `N#CC(OC1OC(COC2OC(CO)C(O)C(O)C2O)C(O)C(O)C1O)c1ccccc1` (centres undefined), the GI50 with K562, in the test with HT-29, in the test with NCI-H460, with SK-MEL-28, in the test on RXF 393 and with UO-31 was > 225 µM (inactive) each time. The GI50 with SNB-75, with A549, in the test on MCF7, in the test on SN12C, with EKVX and with COLO 205 was > 225 µM (inactive) throughout. Moreover, the GI50 with NCI-H23 was > 225 µM (inactive); in the test with OVCAR-5 it was > 191 µM (inactive); in the test with NCI-H522, > 225 µM (inactive); in the test with CAKI-1, > 225 µM (inactive); in the test with HL-60, > 225 µM (inactive).
In the case of `Cc1nc(O)nc(N/N=C/c2ccc(Cl)cc2)c1C(=O)NC(C)(CO)CO`, the GI50 in the test with K562, in the test with HT-29, in the test on MDA-N, in the test on NCI-H460, in the test on SK-MEL-28 and in the test on RXF 393 was > 100 µM (inactive) each time. The GI50 with UO-31, in the test on M14, in the test with SNB-75, in the test on MCF7, in the test with SN12C and with EKVX was > 100 µM (inactive) throughout. The GI50 in the test on COLO 205, in the test with NCI-H23, in the test with OVCAR-5, with CAKI-1 and in the test on HL-60 was > 100 µM (inactive) throughout.
`Nc1nc(N)c2ncn(Cc3ccccc3CO)c2n1`: the GI50 in the test on K562, in the test on HT-29, with NCI-H460, in the test with SK-MEL-28, in the test on UO-31 and in the test on MDA-MB-231 was > 100 µM (inactive) each time. Further, the GI50 with M14, in the test on SNB-75, in the test with A549, in the test with MCF7, in the test with SN12C and in the test with EKVX was > 100 µM (inactive) throughout. Further, the GI50 with COLO 205, in the test with NCI-H23, in the test on OVCAR-5, in the test with NCI-H522, with CAKI-1 and in the test with HL-60 was > 100 µM (inactive) throughout.
On to `COc1cc(Nc2cnc3cc(F)c(F)cc3n2)cc(OC)c1OC`, for which the GI50 in the test with HT-29 was > 100 µM (inactive); in the test on MDA-N it was > 100 µM (inactive); in the test with NCI-H460, > 100 µM (inactive); with SK-MEL-28, > 100 µM (inactive); with RXF 393, 36.8 µM (inactive); with UO-31 it was > 100 µM (inactive). Also, the GI50 with M14, in the test on SNB-75, in the test on A549, with MCF7, in the test on SN12C and in the test with EKVX was > 100 µM (inactive) each time. The GI50 in the test with COLO 205 is > 100 µM (inactive); in the test with NCI-H23, 73.6 µM (inactive); in the test with OVCAR-5, > 100 µM (inactive); with NCI-H522, 67.1 µM (inactive); in the test on CAKI-1, > 100 µM (inactive); with HL-60, 24.9 µM (inactive).
In the case of `O=C1CCCCc2cccc(O)c21`, the GI50 with K562, in the test with HT-29, with NCI-H460, in the test on SK-MEL-28, in the test on RXF 393 and in the test on UO-31 was > 100 µM (inactive) throughout. The GI50 in the test on MDA-MB-231, with M14, in the test with SNB-75, with MCF7, with SN12C and in the test on EKVX was > 100 µM (inactive) throughout. Moreover, the GI50 in the test with COLO 205, with NCI-H23, in the test on OVCAR-5, with NCI-H522, in the test with CAKI-1 and in the test on HL-60 was > 100 µM (inactive) in each case.
For `COc1ccc(N[S+]([O-])C2CCCCC2)cc1` (centres undefined), the GI50 in the test with K562, in the test with HT-29, in the test with NCI-H460, with SK-MEL-28, with RXF 393 and in the test with UO-31 was > 100 µM (inactive) in each case. Moreover, the GI50 in the test on MDA-MB-231, with M14, in the test with SNB-75, with A549, in the test on MCF7 and with SN12C was > 100 µM (inactive) each time. The GI50 with EKVX, in the test on COLO 205, in the test on NCI-H23, in the test with OVCAR-5, with NCI-H522 and in the test with CAKI-1 was > 100 µM (inactive) in each case. Moreover, the GI50 in the test with HL-60 was > 100 µM (inactive).
Turning to `COc1ccc(OC)c2c(C(C)=O)cccc12`, the GI50 in the test with K562, in the test with NCI-H460, in the test with SK-MEL-28, in the test on RXF 393, in the test on UO-31 and in the test with MDA-MB-231 was > 100 µM (inactive) each time. In addition, the GI50 in the test on A549, with MCF7, with SN12C, in the test on EKVX, with COLO 205 and in the test on NCI-H23 was > 100 µM (inactive) throughout. Also, the GI50 in the test on OVCAR-5 was > 100 µM (inactive); with NCI-H522, > 100 µM (inactive); in the test with HL-60, 85.1 µM (inactive).
As for `COP(=O)(Cc1ccccc1)Cc1ccccc1`, the GI50 in the test with K562 is > 100 µM (inactive); in the test with HT-29, > 100 µM (inactive); with NCI-H460, > 100 µM (inactive); in the test with SK-MEL-28, > 100 µM (inactive); in the test with RXF 393, 86.1 µM (inactive); with UO-31, > 100 µM (inactive). Further, the GI50 with MDA-MB-231, in the test with M14, in the test on SNB-75, with A549, in the test on MCF7 and in the test with SN12C was > 100 µM (inactive) in each case. For the same compound, the GI50 with EKVX, in the test with COLO 205, in the test with NCI-H23, in the test with OVCAR-5, in the test with NCI-H522 and in the test on CAKI-1 was > 100 µM (inactive) throughout. Moreover, the GI50 in the test on HL-60 was > 100 µM (inactive).
On to `NCCCN(CCCCN(CCCN)C(=O)OCc1ccccc1)C(=O)OCc1ccccc1`, for which the GI50 is 37.9 µM (inactive) with K562; > 100 µM (inactive) in the test with HT-29; 88.9 µM (inactive) with NCI-H460; > 100 µM (inactive) with SK-MEL-28; 98.6 µM (inactive) in the test with RXF 393; > 100 µM (inactive) in the test on UO-31. In addition, the GI50 in the test on MDA-MB-231 was 35.6 µM (inactive); in the test on M14, > 100 µM (inactive); in the test with SNB-75, 56.8 µM (inactive); in the test with A549, > 100 µM (inactive); in the test on MCF7, 30.9 µM (inactive); in the test with SN12C it was > 100 µM (inactive). Moreover, the GI50 with EKVX was > 100 µM (inactive); in the test with COLO 205 it was > 100 µM (inactive); in the test on NCI-H23, > 100 µM (inactive); with OVCAR-5 it was > 100 µM (inactive); with NCI-H522, 28.5 µM (inactive); in the test with CAKI-1, > 100 µM (inactive). Moreover, the GI50 in the test on HL-60 was 29.8 µM (inactive).
Take `C=C1CC(OC)(C(O)C(=O)N[C@H]2OCO[C@H]3C2O[C@H](C[C@H](O)COC)C(C)(C)C3OC)O[C@H](C)[C@@H]1C` (some centres undefined): the GI50 in the test with K562, with HT-29, with NCI-H460, in the test on SK-MEL-28, in the test with RXF 393 and in the test on UO-31 was < 0.00773 µM (active) in each case. Further, the GI50 in the test with SNB-75, with A549, with MCF7, in the test on SN12C, in the test on EKVX and in the test with COLO 205 was < 0.00773 µM (active) in each case. Also, the GI50 with NCI-H23, in the test with OVCAR-5, in the test with NCI-H522, in the test with CAKI-1 and with HL-60 was < 0.00773 µM (active) in each case.
